Experimental data: US20180027807A1, “Vermin Control Compositions” (priority 2013, published 2018)
Read-outs that look alike come from different tables or passages of the source.

Experiments:
[1] = cited from earlier work
[2] = crystalline form, 7 days, cited from earlier work
[3] = Accelerated stability study of cholecalciferol in DMSO/ethanol formulations; format: physicochemical; conditions: across all formulations, 25° C.±2° C./60% RH±5%
Experimental: The stability of cholecalciferol in the chosen penetration enhancer is an important consideration when analysing the physical properties of the formulation. An unstable formulation which causes cholecalciferol to degrade would result in delivery of sub-lethal doses. […] Conversely, cholecalciferol solutions in surfactants and oils are said to be stable over long periods at 40° C. In order to assess the stability of cholecalciferol when combined with the chosen penetration enhancers an accelerated stability study was performed. In total, 6 formulations with varying types and concentration of penetration enhancers were stored in an accelerated stability cabinet at 25° C.±2° C./60% RH±5%. Each formulation contained 10% (w/v) cholecalciferol. Each formulation was made up a day before the intended start date of the stability study and left in a water bath/shaker overnight at 25° C. to allow adequate time for the cholecalciferol to dissolve. Amber bottles were used to prevent photo-degradation and parafilm was used to seal round the screw lid to prevent oxidative degradation from the air. At each sampling point the lid was removed and 200 μl taken; the sample was serially diluted 8 times (256-fold) before analysis with HPLC.
All formulations contain 10% (w/v) cholecalciferol.

For `C=C1CC[C@H](O)C/C1=C/C=C1\CCC[C@]2(C)[C@@H]([C@H](C)CCCC(C)C)CC[C@@H]12` [cholecalciferol], the “Solubility (class)” value ([1]; cholecalciferol in ethanol, classification taken from the British Pharmacopeia) is given as “freely soluble (a solubility between 1-10 ml/g is classed as freely soluble)”, the solubility in water ([1]; cholecalciferol in water, stated) is given as “practically insoluble” and the decrease in potency ([2]; 40° C./45% RH) is given as 35%. The decrease in potency ([2]; 40° C./85% RH) was 85%, the degradation of cholecalciferol ([3]; during the first 10 days) was 16.83% and the “degradation of cholecalciferol (drop in potency)” value ([3]; over 50 days, 10% (w/v) in DMSO/ethanol ratios, amber bottles) was 27.11%.
